Test results as given in paper PMC12294420, “Phytochemical Characterization, Bioactivities, and Nanoparticle-Based Topical Gel Formulation Development from Four Mitragyna speciosa Varieties” (Gels, 2025).

Experiments:
[1] = biological target: T1, bovine testis hyaluronidase (Bos taurus, UniProt Q2YDK3); test: turbidimetric hyaluronic acid degradation assay, […] nm; type: biochemical; conditions: read-out: % inhibition at 1 mg/mL
T1 construct: gene SPAM1; commercial native testis preparation (Sigma-Aldrich)
T1 sequence (Q2YDK3 36-553): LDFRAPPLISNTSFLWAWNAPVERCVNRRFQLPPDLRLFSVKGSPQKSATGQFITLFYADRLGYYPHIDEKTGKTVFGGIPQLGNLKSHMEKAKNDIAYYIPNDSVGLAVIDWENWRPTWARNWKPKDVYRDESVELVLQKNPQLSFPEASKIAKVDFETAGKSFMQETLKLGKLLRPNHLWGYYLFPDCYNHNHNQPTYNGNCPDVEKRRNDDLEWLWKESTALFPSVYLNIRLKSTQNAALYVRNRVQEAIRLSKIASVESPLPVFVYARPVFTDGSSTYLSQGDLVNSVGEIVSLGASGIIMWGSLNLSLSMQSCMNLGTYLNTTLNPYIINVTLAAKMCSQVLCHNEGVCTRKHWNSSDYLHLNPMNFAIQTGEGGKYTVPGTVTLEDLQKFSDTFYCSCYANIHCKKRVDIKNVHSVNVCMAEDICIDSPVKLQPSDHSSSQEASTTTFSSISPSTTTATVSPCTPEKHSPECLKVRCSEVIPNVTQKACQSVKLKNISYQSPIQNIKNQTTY

[2] = biological target: T2, porcine pancreatic elastase (Sus scrofa, UniProt P00772); test: Suc-Ala-Ala-Ala-pNA hydrolysis, […] nm kinetic; type: biochemical; conditions: read-out: % inhibition at 1 mg/mL
T2 construct: gene CELA1; commercial native pancreatic enzyme (Sigma-Aldrich)
T2 sequence (P00772 27-266): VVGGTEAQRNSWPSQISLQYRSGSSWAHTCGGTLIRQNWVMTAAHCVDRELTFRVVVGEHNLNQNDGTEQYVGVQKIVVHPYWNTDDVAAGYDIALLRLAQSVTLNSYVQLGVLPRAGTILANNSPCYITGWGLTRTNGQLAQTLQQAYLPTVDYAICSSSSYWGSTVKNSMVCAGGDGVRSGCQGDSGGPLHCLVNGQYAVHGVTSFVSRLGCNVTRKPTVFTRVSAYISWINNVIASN

Structure (SMILES): CC[C@@H]1CN2CCc3c([nH]c4cccc(OC)c34)[C@@H]2C[C@@H]1/C(=C\OC)C(=O)OC [mitragynine]
- inhibition at 1000 µg/mL [1]: 83.3 ± 1.35%
- inhibition at 1000 µg/mL [2]: 54.5 ± 1.5%
